Reference: patent publication US8901129B2, “Methods of facilitating neural cell survival using GDNF family ligand (GFL) mimetics or RET signaling pathway activators” (GeneCode AS, priority 2009, dated 2014)

Columns and labels:
[1] = test system: GFRα3/RET-expressing reporter cell line; experiment: Reporter-gene luciferase activity assay, dose-response (FIG. 5); assay type: cell-based, human; conditions: GFRα3/RET cells; 1-50 μM, 24 h
Description: Full-length flag-tagged rat Gfrα1 cDNA (Leppänen et al., 2004) subcloned into in pcDNA3 (Invitrogen). Full-length human GFRα1 cDNA (Sidorova et al., unpublished) subcloned in pcDNA6 (Invitrogen). Full-length human GFRα3 cDNA (Wang et al., 2006). Full-length human RET (long isoform) (Runeberg-Roos et al., 2007) in pCR3.1 (Invitrogen). The MAPK activation detection system (Baloh et al., 2000) and PathDetect Elk-1 (Stratagene) both of which include two plasmids. First one constitutively expresses MAPK pathway specific fusion transactivator, that consists of activation domain of Elk-1 and DNA-binding domain of the yeast GAL4 protein (Gal4-Elk1). The other plasmid, Gal4-Luc, carries luciferase gene under the control of a synthetic promoter containing the yeast GAL4 binding sequences.
(§1) Cells were plated on 96-well plates (or 384-well) in cell density 20 000 (or 5 000 for 384-well format) cells per well in DMEM, 10% FBS, 100 μg/ml Normocin, 2 μg/ml puromycin, 500 μg/ml of G418, 15 mM HEPES, pH 7.2 one day before assay. The following day, the compounds were added to a final concentration of 1-50 μM. Structures of the compounds are shown in the description of FIG. 5, above. Cells were allowed to produce luciferase for 24 h, then lysed in 20 μl of 1×Cell culture lysis reagent (Promega) and freeze-thawed once to ensure complete lysis. Then 5 μl of the lysate was mixed (on ice) with 20 μl of luciferase assay substrate (Promega) in a well of black Isoplate (PerkinElmer). Luminescence was counted on MicroBeta 2 counter (PerkinElmer) twice. Data are presented as fold induction, where the corresponding concentration of DMSO was used as a reference.

6-OHDA lesioned rats = experiment: Amphetamine induced rotation asymmetry in 6-OHDA rat model of Parkinson's disease (FIG. 7); assay type: in vivo; conditions: for amphetamine-induced ipsilateral rotation: 3 weeks after 6-OHDA, measured 6 weeks after 6-OHDA; for amphetamine-induced ipsilateral rotation of lesioned rats: injected into striatum 3 weeks after 6-OHDA, dose not stated
Description: The objective of this study is to investigate the effect of intrastriatally (i.s.) administered small molecule GDNF mimetics (compounds 13, 16, 319H6 and 292651, structures shown in the description of the Figures, above) in a rat model 6-OHDA of Parkinson's disease. In the sub-acute lesion model used in this study, the lesion of the substantia nigra (SNc) that slowly progresses over weeks is created by injection of 6-OHDA into the proximity of the dopaminergic terminals in the striatum (Kirik-D 1998, Exp. Neurol. 152:259-277). In this model, a portion of the nigrostriatal projection is left intact, which can serve as a substrate for regeneration and functional recovery in response to growth promoting and neuroprotective agents.
GDNF mimetics compounds, GDNF or vehicle is administered to the striatum at 3 weeks after the exposure to the neurotoxin 6-OHDA. The selective damage to dopaminergic neurons in the SNc, as well as striatal levels of dopamine and its metabolites are evaluated 12 weeks after the injection of 6-OHDA with tyrosine hydroxylase (TH) immunohistochemistry and HPLC, respectively. In addition, the behavioral impairment of rats is evaluated by forelimb asymmetry test (cylinder test), amphetamine induced rotation asymmetry test and Y-maze test for stereotypic spontaneous rotation deficits.
Animals: All animal experiments are carried out according to the National Institute of Health (NIH) guidelines for the care and use of laboratory animals, and approved by the State Provincial Office of Southern Finland. Altogether 108 male Wistar rats, purchased from Charles River, Germany and weighing 220-275 g are used for the experiment. Animals are housed at a standard temperature (22±1° C.) and in a light-controlled environment (lights on from 7 am to 8 pm) with ad libitum access to food and water. Animals are grouped as follows:
In order to generate partial retrograde degeneration into the SNc, 6-OHDA lesioning is carried out according to Sauer and Oertel with modifications (Sauer and Oertel, 1994). Male Wistar rats are anesthetized with 5% isoflurane (in 70% N2O and 30% O2; flow 300 ml/min) and placed in a stereotactic frame. During the operation concentration of anesthetic is reduced to 1-1.5%. The rectal temperature is maintained at 37.0±1.0° C. with a homeothermic blanket system. The right brain hemisphere is exposed through a small craniectomy to the skull. The dura mater is carefully removed with fine forceps and a stereotaxic injection of 6-OHDA (4 μg/μl) is made into the right striatum. A total of 7 μl of 6-OHDA is infused at a speed of 0.5 μl/min and is equally distributed between 4 sites at the following coordinates: AP+1.0, ML+2.8, DV−6.0, −5.5, −5.0 and −4.4 mm. The cannula is left in place for another 5 min before being withdrawn. The hole in the skull is subsequently filled with repair material and the skin is closed and disinfected. The rats are allowed to recover from anesthesia and are carefully monitored for possible post surgical complications. The animals are returned to the home cages with ad libitum access to food and water.
On day 21, rats are re-anesthetized with 5% isoflurane (in 70% N2O and 30% O2; flow 300 ml/min) and placed in a stereotactic frame. During the operation concentration of anesthetic is reduced to 1-1.5%. The rectal temperature is maintained at 37.0±1.0° C. with a homeothermic blanket system. The right brain hemisphere is exposed through a small craniectomy to the skull. A stereotaxic injection of the test compound, GDNF or vehicle is made into the right striatum. Each dosing solution is infused at a speed of 1 μl/min and is equally distributed between 4 sites at the following coordinates: AP+1.0, ML+2.8, DV−6.0, −5.5, −5.0 and −4.4 mm. The cannula is left in place for another 5 min before being withdrawn. The hole in the skull is subsequently filled with repair material and the skin is closed and disinfected. […]

[2] = test system: GFRα1/RET-expressing cells; experiment: Reporter-gene luciferase activity assay, dose-response (FIG. 5); assay type: cell-based; conditions: 1-50 μM, 24 h
Method: Generation of stable cell lines. MG87RET murine fibroblast were plated on […] dishes and transfected with 4 μg of G4-Luc, Gal4-Elk (Baloh et al., 2000) and GFRα1 expressing plasmid (“αLUC” cells) or empty vector (“NOα” cells) containing neomycin-resistance gene in ratio 4:1:1 using Lipofectamine 2000 (Invitrogen) for DNA delivery as described by manufacturer. The following day, cells were trypsinized and plated in low density on 10-cm tissue culture dishes. Stable transformants were selected in the presence of 500-750 μg/ml geneticin (Invitrogen). Established cell lines were maintained in DMEM, 10% fetal bovine serum (FBS), 100 μg/ml Normocin (Invivogene), 2 μg/ml of puromycin, 500 μg/ml of geneticin, 15 mM HEPES, pH 7.2. Pathdetect Elk-1 system and human GFRα1-expressing plasmid (“Strat-Luc” cells) or empty vector (control cell line “NOStratis”) cells were selected and maintained in the DMEM, 10% FBS, 100 μg/ml Normocin (Invivogene), 2 μg/ml of puromycin, 500 μg/ml of G418, 2 μg/ml of blasticidin S, 15 mM HEPES, pH 7.2.
as §1

Row | SMILES | induction of luciferase expression [1] | amphetamine-induced ipsilateral rotation (6-OHDA lesioned rats; 0.2 ug intrastriatal) | amphetamine-induced ipsilateral rotation of lesioned rats (6-OHDA lesioned rats) | induction of luciferase expression [2] | amphetamine-induced ipsilateral rotation (6-OHDA lesioned rats; intrastriatal (Group 5: 0.5 ug per rat)) | amphetamine-induced ipsilateral rotation (6-OHDA lesioned rats; 1 ug intrastriatal)
1 | CCN(CC)S(=O)(=O)c1ccc(OC)c(N2CCN(C(=O)c3cc(F)ccc3C(F)(F)F)CC2)c1 [BT13] | in a dose-dependent manner induce luciferase expression | reduced amphetamine-induced ipsilateral rotation | significantly reduce | in a dose-dependent manner induce luciferase expression |  | 
2 | COc1ccc(S(=O)(=O)N2CCc3ccccc3C2)cc1N1CCN(C(=O)c2cc(F)ccc2C(F)(F)F)CC1 [BT16] | in a dose-dependent manner induce luciferase expression |  | significantly reduce | in a dose-dependent manner induce luciferase expression | reduced amphetamine-induced ipsilateral rotation | 
3 | COc1cc2c(cc1OC)CN(S(=O)(=O)c1ccc(OC)c(N3CCN(C(=O)c4cc(F)ccc4C(F)(F)F)CC3)c1)CC2 [BT18] |  |  | significantly reduce | active |  | reduced amphetamine-induced ipsilateral rotation
